From patent US8008303B2, “Biphenyl derivatives and their use in treating hepatitis C” (AstraZeneca AB, priority 2005, dated 2011)

How the values were obtained:
[1] = test system: HCV replicon cells Huh 9B; experiment: HCV replicon assay (luciferase readout); format: cell-based; details: Hepatitis C virus, 72 h, concentration reducing replicon level (luciferase activity) by 50% vs untreated cell control; 72 h incubation
Outline: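 Compounds, made up at twice final strength (final DMSO 1%), were added to subgenomic replicon cells one day after plating. Incubation then ran 72 h at 37 °C, 5% CO2, without G418. Replication was quantified as firefly luciferase luminescence in lysed cells, with cytotoxicity assessed on a duplicate clear plate.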

[2] = test system: HCV replicon cells Huh 9B; format: cell-based; details: concentration reducing total cell area by 50% relative to DMSO controls; methylene blue, absorbance 620 nm; 72 h incubation

Row | Structure (SMILES) | IC50 [1] [µM] | TD50 [2]
1 | Cc1ccc(NC(=O)c2ccc(F)cc2)cc1-c1ccc(C(=O)Nc2ccc(CN3CCS(=O)(=O)CC3)cc2)cc1 [Example 159, 5′-(4-Fluoro-benzoylamino)-2′-methyl-biphenyl-4-carboxylic acid [4-(1,1-dioxo-1lambda*6*-thiomorpholin-4-ylmethyl)-phenyl]-amide] | < 1 | * (* < 50 μM)
2 | Cc1ccc(C(=O)Nc2ccc(C)c(-c3ccc(C(=O)Nc4ccc(CN5CCS(=O)(=O)CC5)cc4)cc3)c2)cc1 [Example 160, 2′-Methyl-5′-(4-methyl-benzoylamino)-biphenyl-4-carboxylic acid [4-(1,1-dioxo-1lambda*6*-thiomorpholin-4-ylmethyl)-phenyl]-amide] | < 1 | * (* < 50 μM)
3 | Cc1ccc(NC(=O)c2ccc(CN3CCS(=O)(=O)CC3)cc2)cc1-c1ccc(C(=O)Nc2ccc(CN3CCS(=O)(=O)CC3)cc2)cc1 [Example 161, 5′-[4-(1,1-Dioxo-1lambda*6*-thiomorpholin-4-ylmethyl)-benzoylamino]-2′-methyl-biphenyl-4-carboxylic acid [4-(1,1-dioxo-1lambda*6*-thiomorpholin-4-ylmethyl)-phenyl]-amide] | 1 to 5 | * (* < 50 μM)
4 | Cc1ccc(NC(=O)c2ccc(CN3CCS(=O)(=O)CC3)cc2)cc1-c1ccc(C(=O)NCc2cccc(Cl)c2)cc1 [Example 162, 5′-[4-(1,1-Dioxo-1lambda*6*-thiomorpholin-4-ylmethyl)-benzoylamino]-2′-methyl-biphenyl-4-carboxylic acid 3-chloro-benzylamide] | 1 to 5 | * (* < 50 μM)
5 | Cc1ccc(NC(=O)CCC2CCCCC2)cc1-c1ccc(C(=O)Nc2ccc(CN3CCS(=O)(=O)CC3)cc2)cc1 [Example 163, 5′-(3-Cyclohexyl-propionylamino)-2′-methyl-biphenyl-4-carboxylic acid [4-(1,1-dioxo-1lambda*6*-thiomorpholin-4-ylmethyl)-phenyl]-amide] | < 1 | * (* < 50 μM)
6 | Cc1ccc(NC(=O)C2CCCCCC2)cc1-c1ccc(C(=O)Nc2ccc(CN3CCS(=O)(=O)CC3)cc2)cc1 [Example 164, 5′-(Cycloheptanecarbonyl-amino)-2′-methyl-biphenyl-4-carboxylic acid [4-(1,1-dioxo-1lambda*6*-thiomorpholin-4-ylmethyl)-phenyl]-amide] | < 1 | * (* < 50 μM)
7 | Cc1ccc(NC(=O)CC2CCCCC2)cc1-c1ccc(C(=O)Nc2ccc(CN3CCS(=O)(=O)CC3)cc2)cc1 [Example 165, 5′-(2-Cyclohexyl-acetylamino)-2′-methyl-biphenyl-4-carboxylic acid [4-(1,1-dioxo-1lambda*6*-thiomorpholin-4-ylmethyl)-phenyl]-amide] | < 1 | * (* < 50 μM)
8 | Cc1ccc(NC(=O)CC2CCCC2)cc1-c1ccc(C(=O)Nc2ccc(CN3CCS(=O)(=O)CC3)cc2)cc1 [Example 166, 5′-(2-Cyclopentyl-acetylamino)-2′-methyl-biphenyl-4-carboxylic acid [4-(1,1-dioxo-1lambda*6*-thiomorpholin-4-ylmethyl)-phenyl]-amide] | < 1 | * (* < 50 μM)
9 | Cc1ccc(NC(=O)C2CCCC2)cc1-c1ccc(C(=O)Nc2ccc(CN3CCS(=O)(=O)CC3)cc2)cc1 [Example 167, 5′-(Cyclopentanecarbonyl-amino)-2′-methyl-biphenyl-4-carboxylic acid [4-(1,1-dioxo-1lambda*6*-thiomorpholin-4-ylmethyl)-phenyl]-amide] | < 1 | * (* < 50 μM)
10 | O=C(Nc1ccc(CN2CCS(=O)(=O)CC2)cc1)c1ccc(-c2cccc(NC(=O)C3CC3)c2)cc1 [Example 168, 3′-(Cyclopropanecarbonyl-amino)-biphenyl-4-carboxylic acid [4-(1,1-dioxo-1lambda*6*-thiomorpholin-4-ylmethyl)-phenyl]-amide] | < 1 | * (* < 50 μM)
